The values below come from publication PMC11123948, “Leucoverdazyls as Novel Potent Inhibitors of Enterovirus Replication” (Pathogens, 2024).

Structures can show the parent of a compound that is named as a salt.

The subject of data set [1] is Coxsackie B3 virus. Put plainly: microbe, parasite or virus in culture. It counts as cell-based, Coxsackievirus B3 (CVB3, strain Nancy). Conditions: Coxsackie B3 virus (Nancy, original), viral yield reduction in Vero cells, 24 h.
The test system of data set [2] is Ad5. Put plainly: microbe, parasite or virus in culture. It counts as cell-based, human adenovirus type 5. Conditions: Human mastadenovirus C, A549.
Data set [3] is described as follows: in vitro. Conditions: dog.
Data set [4] deals with Vero cells. As to the kind of experiment: Cytotoxicity assay (MTT) in Vero cells.
Procedure: (§1) Permissive cells were seeded in 96-well plates in Eagle’s minimal essential medium (MEM) supplemented with 10% FBS. After 24 h, the medium was removed, and the wells were washed with saline. Compounds w [...
The test system of data set [5] is CVB3-WT and -R variants. Put plainly: Growth kinetics of CVB3 WT and R variants with and without 1a. To be noted: Vero cells, MOI 0.001, 1a 7 ug/mL, up to 72 h. It counts as cell-based, Coxsackievirus B3.
The subject of data set [6] is CVA24. Put plainly: Viral yield reduction assay, CVA24. In kind it is cell-based, Coxsackievirus A24 (clinical isolate). Conditions: CVA24, RD cells.
Data set [7] relates to CVB4. Put plainly: Time-of-addition assay. It counts as cell-based, Coxsackievirus B4 (CVB4, strain Powers). To be noted: CVB4 in Vero cells, 1a 5 μg/mL; for Interval of addition with highest inhibitory activity: pleconaril 10 μg/mL, titer at 8 h.
Data set [8] in a line: in vitro. To be noted: human.
The nature of data set [9]: in vitro. To be noted: African green monkey; for CC50 at 24 h: Vero cells.
Procedure: as §1
Data set [10] relates to SARS-CoV-2. As to the kind of experiment: Viral yield reduction assay, SARS-CoV-2. It counts as cell-based, SARS-CoV-2 virus (Wuhan strain). Conditions: Severe acute respiratory syndrome coronavirus 2, SARS-CoV-2, Vero cells.
A short description of data set [11]: Cytotoxicity assay (MTT) in RD cells. In kind it is cell-based. To be noted: human, 24 h incubation with compound only.
In data set [12] the test system is Influenza B/Florida/04/06. As to the kind of experiment: microbe, parasite or virus in culture. To be noted: MDCK. In kind it is cell-based, influenza B virus (strain B/Florida/04/06, Yamagata lineage).
Data set [13] deals with CVB3 virus. As to the kind of experiment: Transmission electron microscopy of CVB3-infected Vero cells. To be noted: MOI 100, 100 µM 1a, 3 h, TEM.
Procedure: Vero cells in 6-well plates were incubated with CVB3 virus, MOI = 100, at 4 °C for 1 h. Unbound virions were removed by washing the cells twice with cold MEM; a medium containing 100 µM of 1a was added. […] Cells were incubated for 3 h at 36 °C in 5% CO2. In wells with control virus, MEM without 1a was added. After incubation, cells were collected from the wells, transferred into tubes, and centrifuged at 2000× g for 15 min. Cell pellets were fixed with 1.5% glutaraldehyde in PBS overnight, followed by post-fixation with 1.5% OsO4 for 1 h and uranyl acetate for 45 min at room temperature. They were then dehydrated in graded acetone and embedded in Epon/Araldit resin (Serva Feinbiochemica, Heidelberg, Germany). Thin sections (90 nm) were stained with lead citrate and examined in a JEM-100S electron microscope (JEOL, Tokyo, Japan).
The nature of data set [14]: Antioxidant activity, DPPH assay. It counts as physicochemical. Conditions: DPPH 200 μM in methanol, 30 min at 30 °C; vitamin C as reference; result in words. The method, then: Antioxidant activity was evaluated by spectrophotometric monitoring of the hydrogen transfer reaction with a stable chromogen radical, 2,2-diphenyl-1-picrylhydrazyl (DPPH, Sigma-Aldrich, St. Louis, MO, USA), using vitamin C (Vc) as described before. A solution of DPPH in methanol with a concentration of 200 μM was added to a solution of dihydrotetrazines in the same solvent (concentrations 5 to 50 μM). The reaction vessel (test tube) was wrapped in foil and kept for 30 min at 30 °C, and the optical density was measured at λ 517 nm (DPPH absorption maximum). The antioxidant activity (AO) was calculated by the formula AO = (1 − Atest/Acontr) × 100%, where Atest is the optical density of a solution containing a compound to be tested and DPPH, and Acontr is the optical density of a solution containing DPPH alone. The half-inhibitory concentration (IC50) corresponding to the reduction of the initial DPPH concentration by 50% was determined from the DPPH inhibition percentage plotted against concentrations of compounds 2 through 5 (Figure 1) using the OriginPro 8.5 program (OriginLab Corporation, Northampton, MA, USA) (Model DoseResp).
(The DPPH test is a chemical assay of radical scavenging.)

In data set [15] the test system is CVA16. As to the kind of experiment: Viral yield reduction assay, CVA16. It counts as cell-based, Coxsackievirus A16 (clinical isolate). Conditions: CVA16, RD cells.
Data set [16] deals with CVB3 R. As to the kind of experiment: microbe, parasite or virus in culture. It counts as cell-based, Coxsackievirus B3 (Nancy strain), passaged with 1a. To be noted: Enterovirus B, CVB3, Vero.
The test system of data set [17] is CVB4 Powers. As to the kind of experiment: Thermostability assay. To be noted: compound 10 µg/mL, thermal gradient 37–55 °C for 2 min. More on the design: species or system Coxsackievirus B4 (CVB4, strain Powers). The method, then:
The thermostability assay was performed as described previously. The CVB4 strain was chosen because it is sensitive to the pleconaril used in this assay as a reference compound. The compound concentration used in the assay was selected according to the results of preliminary thermostability assays. Briefly, CVB4 Powers (10^4 TCID50) was pre-incubated with the compound (10 µg/mL), pleconaril (10 µg/mL), or an equal volume of MEM (virus control) for 30 min at +37 °C in sterile thin-walled 200 μl PCR-tubes (5 tubes per each treatment condition) in a BioRad CFX PCR-machine (BioRad Laboratories, Inc., Hercules, CA, USA). Then, a thermal gradient of 37–55 °C for 2 min, followed by rapid cooling to 4 °C, was applied. Subsequently, the infectious viral activities of the samples were quantified by end-point dilution assay.

Data set [18] has as its system CVB3 WT. As to the kind of experiment: microbe, parasite or virus in culture. In kind it is cell-based, Coxsackievirus B3 (Nancy strain), passaged without 1a. Conditions: Enterovirus B, CVB3, Vero.
Data set [19] concerns CVB4 (strain Powers). As to the kind of experiment: Viral yield reduction assay, CVB4. In kind it is cell-based, Coxsackievirus B4 (CVB4. Conditions: Vero cells.
In data set [20] the test system is HSV1. Put plainly: microbe, parasite or virus in culture. In kind it is cell-based, herpes simplex virus type 1. To be noted: Human alphaherpesvirus 1; HSV1, Vero cells, viral yield reduction.
For data set [21], the system named is ECHO30. As to the kind of experiment: Viral yield reduction assay, ECHO30. It counts as cell-based, ECHO30 (clinical isolate). Conditions: ECHO30, RD cells.
In data set [22] the test system is Influenza A/Puerto Rico/8/34. As to the kind of experiment: Viral yield reduction assay, influenza A. It counts as cell-based, Influenza A virus (strain A/Puerto Rico/8/1934 (H1N1)). To be noted: Influenza A virus, Influenza A/Puerto Rico/8/34, MDCK cells.
Data set [23] deals with CVB5. As to the kind of experiment: Viral yield reduction assay, CVB5. In kind it is cell-based, Coxsackievirus B5 (clinical isolate). To be noted: CVB5, Vero cells.
For data set [24], the system named is RD cells. Put plainly: Cytotoxicity assay (MTT) in RD cells. In kind it is cell-based. To be noted: 24 h incubation with compound only.

Take `c1ccc(C2=NN(c3nc4ccccc4s3)CN(c3ccccc3)N2)cc1` [Compound 1a]: the IC50 in data set [1] is 1.8 ± 0.3 µM; in data set [1] (Enterovirus B, B3, Vero), 2.7 µM; in [2], 43.1 ± 3.8 µM; in data set [6] (Enterovirus C), 0.9 ± 0.3 µM; in data set [10], 4.5 ± 1.2 µM; in data set [12], 40.5 ± 5.1 µM. The IC50 in data set [15] (Enterovirus A) stood at 0.8 ± 0.2 µM; in data set [16], 12.9 µM; in data set [18], 0.48 µM; in data set [19] (Enterovirus B), 1.7 ± 0.5 µM; in data set [20], 46.3 ± 4.4 µM; in [21] it was 1.6 ± 0.4 µM. In addition, the concentration for half-maximal inhibition (IC50) in data set [22] was 38.7 ± 2.9 µM; in [23] (Enterovirus B), 1.5 ± 0.3 µM. Further, the CC50 in [3] came out at 850 ± 78.3 µM; in data set [4] (SARS-CoV-2 row, 48 h or 24 h depending on virus life cycle, MTT) it was 656 ± 70.4 µM; in data set [8], 501 ± 45.7 µM; in data set [9], 451 ± 51.2 µM. In addition, the “Propagation of CVB3 strains in presence of 1a” value in data set [5] is on record as “the resistant strain was able to effectively propagate in contrast to the wild-type virus”. In addition, the “Inhibition of viral replication on late addition” value in [7] (added later than 6 h after adsorption of the virus) is “Inhibition of viral replication was not observed”. The “Interval of addition with highest inhibitory activity” value in data set [7] is listed as “from −2 to 4 h post-infection”. Also, the results for the CC50 at 24 h in data set [9] and in data set [11] were 620 ± 52.7 µM and 673 ± 60.1 µM, respectively. In addition, in data set [13], the “Examined cells with no replication organelles visible” value is recorded as 47 out of 49. Further, the “Antioxidant activity (DPPH assay)” value in [14] is on record as “most pronounced antioxidant activity”. In data set [17], the “Thermostabilizing effect on virion (infectious particles after heating)” value is “no infectious particles were detected when heated above 45 degrees”.
As for `COc1ccc(N2CN(c3nc4ccccc4s3)N=C(c3ccccc3)N2)cc1` [Compound 1b], in [1] (Enterovirus B, B3, Vero), the IC50 is 5.4 ± 1.1 µM. The same compound gave a CC50 at 24 h in [9] greater than 1350 µM. For the same compound, in data set [14], the “Antioxidant activity (DPPH assay)” value is “most pronounced antioxidant activity”.
Turning to `Clc1ccc(N2CN(c3nc4ccccc4s3)N=C(c3ccccc3)N2)cc1` [Compound 1c], in data set [1] (Enterovirus B, B3, Vero), half-maximal inhibition (IC50) was put at 7.4 ± 2.2 µM. In data set [9], the CC50 at 24 h was found to be 321 ± 28.2 µM.
On the same counts, the results for `Brc1ccc(N2CN(c3nc4ccccc4s3)N=C(c3ccccc3)N2)cc1` [Compound 1d] are 6.2 ± 1.9 µM and 886 ± 90.4 µM.
In data set [1] (Enterovirus B, B3, Vero), `CC1N(c2nc3ccccc3s2)N=C(c2ccccc2)NN1c1ccccc1` (stereo not shown) [Compound 2a] yielded an IC50 of 6.49 ± 0.8 µM. The compound further had a CC50 at 24 h in data set [9] greater than 325 µM.
Regarding `COc1ccc(N2NC(c3ccccc3)=NN(c3nc4ccccc4s3)C2C)cc1` (stereo not shown) [Compound 2b], the half-inhibitory concentration (IC50) in data set [1] (Enterovirus B, B3, Vero) came to 24.1 ± 3.2 µM. In data set [9], the CC50 at 24 h worked out at 2050 ± 198 µM.
Take `CCc1ccc(N2NC(c3ccccc3)=NN(c3nc4ccccc4s3)C2C)cc1` (stereo not shown) [Compound 2c]: the IC50 in data set [1] (Enterovirus B, B3, Vero) was greater than 121 µM. In data set [9], this compound showed a CC50 at 24 h greater than 303 µM.
In data set [1] (Enterovirus B, B3, Vero), `CC1N(c2nc3ccccc3s2)N=C(c2ccccc2)NN1c1ccc(F)cc1` (stereo not shown) [Compound 2d] displayed a concentration for half-maximal inhibition (IC50) greater than 49.6 µM. Also, in data set [9], the CC50 at 24 h was 49.6 ± 3.7 µM.
On to `CC1N(c2nc3ccccc3s2)N=C(c2ccccc2)NN1c1ccc(Br)cc1` (stereo not shown) [Compound 2e], for which the IC50 in data set [1] (Enterovirus B, B3, Vero) was greater than 69.1 µM. In addition, the CC50 at 24 h in data set [9] turned out to be 69.1 ± 5.9 µM.
In data set [1] (Enterovirus B, B3, Vero), `CCC1N(c2nc3ccccc3s2)N=C(c2ccccc2)NN1c1ccccc1` (stereo not shown) [Compound 3a] registered an IC50 greater than 125 µM. Further, the CC50 at 24 h in data set [9] was greater than 313 µM.
In [1] (Enterovirus B, B3, Vero), `CCC1N(c2nc3ccccc3s2)N=C(c2ccccc2)NN1c1ccc(OC)cc1` (stereo not shown) [Compound 3b] registered an IC50 of 60.1 ± 7.2 µM. Besides, the CC50 at 24 h in [9] was found to be 2330 ± 25.3 µM.
With `CCC1N(c2nc3ccccc3s2)N=C(c2ccccc2)NN1c1ccc(F)cc1` (stereo not shown) [Compound 3c], the IC50 in data set [1] (Enterovirus B, B3, Vero) stood at 71.9 ± 6.4 µM. The compound further showed a CC50 at 24 h in data set [9] of 360 ± 41.7 µM.
In data set [1] (Enterovirus B, B3, Vero), `CCC1N(c2nc3ccccc3s2)N=C(c2ccccc2)NN1c1ccc(Br)cc1` (stereo not shown) [Compound 3e] showed an IC50 greater than 210 µM. For the same compound, in [9], the CC50 at 24 h was determined as 946 ± 89.6 µM.
Compound `C=CC1N(c2nc3ccccc3s2)N=C(c2ccccc2)NN1c1ccccc1` (stereo not shown) [Compound 4a] displayed an IC50 in data set [1] (Enterovirus B, B3, Vero) greater than 126 µM. This compound also returned a CC50 at 24 h in data set [9] greater than 315 µM.
On the same counts, the results for `C=CC1N(c2nc3ccccc3s2)N=C(c2ccccc2)NN1c1ccc(OC)cc1` (stereo not shown) [Compound 4b] are greater than 117 µM and greater than 293 µM.
As for `C=CC1N(c2nc3ccccc3s2)N=C(c2ccccc2)NN1c1ccc(Cl)cc1` (stereo not shown) [Compound 4c], in data set [1] (Enterovirus B, B3, Vero), inhibition was half-maximal at 27.9 ± 3.3 µM (IC50). The same compound gave a CC50 at 24 h in [9] greater than 291 µM.
On to `C=CC1N(c2nc3ccccc3s2)N=C(c2ccccc2)NN1c1ccc(I)cc1` (stereo not shown) [Compound 4d], for which 51.6 ± 6.4 µM corresponded to half-maximal inhibition in [1] (Enterovirus B, B3, Vero) (IC50). Also, the CC50 at 24 h in data set [9] was 1530 ± 17.2 µM.
Turning to `N=C(N)N` [Guanidine hydrochloride, reference compound], the CC50 in data set [4] (24 h incubation with compound only, MTT (Table 2)) was greater than 5240 µM; in data set [24] it was greater than 10500 µM. Besides, the IC50 in data set [6] stood at 314 ± 20.1 µM; in data set [15], 337 ± 28.3 µM; in data set [19], 496 ± 26.5 µM; in [21], 126 ± 18.2 µM; in [23], 474 ± 33.4 µM.
In [1] (Enterovirus B, B3, Vero), `Cc1cc(CCCOc2c(C)cc(-c3noc(C(F)(F)F)n3)cc2C)on1` [Pleconaril, reference compound] displayed an IC50 of 15.2 ± 1.6 µM. Also, in data set [7], the “Interval of addition with highest inhibitory activity” value was “between −2 and 0 h”. The CC50 at 24 h in data set [9] turned out to be 656 ± 58.4 µM. Moreover, the “Thermostabilizing effect on virion (infectious particles after heating)” value in data set [17] is on record as “had a thermostabilizing effect”.

In general, IC50 refers to the concentration needed to halve the response being measured.
